In PMC7733455, “A novel multistage antiplasmodial inhibitor targeting Plasmodium falciparum histone deacetylase 1” (Cell Discovery, 2020):
Several values for one entry are separate records, joined by “and”; a condition that tells them apart may be missing. Equal entries are not always repeated. Where two headings read alike, the source gives them in different places.

Tests used:
[1] = In vitro cytotoxicity analysis (CellTiter-Glo), HepG2; conditions: human, HepG2 cells
Description: (§1) In all, 1% DMSO was used as a negative control. The inhibition of each drug was normalized to that of the DMSO control. EC50 was calculated by GraphPad Prism. Three independent assays with two technical replicates each time were conducted in this experiment.

[2] = tested on: HepG2 cells; experiment: as above
Description: as §1

[3] = tested on: P. falciparum isolate 6320; experiment: 3-day SYBR Green I GIA, field isolate 6320; format: cell-based; conditions: Plasmodium falciparum; artemisinin- and piperaquine-resistant isolate; read-out: Resistant isolates EC50, 6320
Description: (§2) A 3-day SYBR Green I inhibition EC50 assay was performed as described previously. Briefly, highly synchronized ring-stage parasites by 5% sorbitol (1% parasitemia and 2% hematocrit) were incubated in a 96-well plate with compounds in a total volume of 200 μL. […] The parasites were cultured for 72 h before SYBR Green I staining as described above. The EC50 was calculated by GraphPad Prism. DHA was used as a positive control, and the final concentration of DMSO was 1%.

[4] = tested on: P. falciparum isolate 6218; experiment: 3-day SYBR Green I GIA, field isolate 6218; format: cell-based; conditions: Plasmodium falciparum; artemisinin- and piperaquine-resistant isolate; read-out: Resistant isolates EC50, 6218
Description: as §2

[5] = tested on: P. falciparum clinical isolates 6218 and 6320; experiment: Ring-stage survival assay (RSA), isolates 6218 and 6320; format: cell-based, Plasmodium falciparum; conditions: 700 nM, isolates 6218 and 6320
Description: An RSA was performed as described previously[65] to evaluate the activity of JX21108 against the artemisinin- and piperaquine-resistant P. falciparum clinical isolates 6218 and 6320[43]. Briefly, parasites were highly synchronized at 0–3 hpi by a 60%/40%-Percoll gradient[66] followed by 5% D-sorbitol[67] treatment after 3 h. The parasite suspension (0.5%–1% parasitemia, 2% hematocrit) was incubated with compounds at 700 nM in a total volume of 2 mL in a 48-well plate for 6 h. After that, the culture mixture was washed three times with 15 mL of CM before another 66 h of cultivation with CM. A Giemsa-stained blood smear was made after cultivation. Parasitemia was counted from at least 10,000 RBCs by microscopy. The survival rate was calculated as the percentage of that in DMSO control. DHA at a concentration of 700 nM served as a positive control.

[6] = tested on: asynchronous 3D7 parasites; experiment: Time- and dose-dependent parasite inhibition assay; format: cell-based, Plasmodium falciparum
Description: Asynchronous parasites (2% parasitemia, 4% hematocrit) were treated with the tested compounds at a concentration of 10, 30, 60, or 100 nM, respectively. At 3, 6, 12, and 24 h post treatment, parasitemia of each sample was detected by flow cytometry to investigate the time-dependent activity. Parasites from the same treatment were further washed to remove compounds, and parasitemia was diluted 1:40 by new RBCs into CM for an additional 4 days of culture. Parasitemia of each sample was detected by flow cytometry as described above to investigate the dose-dependent activity. DMSO was used as a blank control.

[7] = Liver microsome metabolism assay, rat; format: in vitro ADME; conditions: rat liver microsomes
Description: Liver microsomes (0.5 mg/mL) were purchased from Corning. Ketanserin was selected as a positive control. The tested compounds were first dissolved in DMSO to a concentration of 10 mM and then diluted to 0.5 mM with acetonitrile. Liver microsome buffer was used to dilute the compounds to a working concentration of 1.5 µM, 30 µL of which was mixed with 15 µL of 6 mM NADPH at 37 °C. At 0, 5, 15, 30, and 45 min after incubation, 135 µL of acetonitrile was added to quench the reaction. The mixture was shaken on a vortex mixer (IKA, MTS 2/4) for 10 min at 600 rpm/min and then centrifuged at 5594× g for 15 min (Thermo Multifuge×3R). The supernatant was diluted 1:1 into distilled water, and analyzed by LC-MS/MS.

[8] = tested on: 3D7^HDA1-TY1; experiment: Sensitivity of transgenic parasites to JX21108, 3D7^HDA1-TY1; format: cell-based; conditions: Plasmodium falciparum, 3D7, 4 h, read-out: EC50 for 3D7^HDA1-TY1
Description: Highly synchronized schizont-stage parasites were prepared and treated as described above, with adjustments. […] After washing, parasites were cultured in new CM for another 68 h. Parasite growth was monitored by SYBR Green I staining, as described above. The EC50 was calculated by GraphPad Prism.

[9] = tested on: 293T cells; experiment: In vitro cytotoxicity analysis (CellTiter-Glo), 293T
Description: as §1

[10] = as above; conditions: human, 293T cells, Cytotoxicity EC50, 293T, 72 h, CellTiter-Glo
Description: as §1

[11] = tested on: human HDACs; experiment: Human HDAC inhibition assay, summary; format: biochemical
Description: (§3) SAHA and suramin were used as positive controls. The tested compounds were dissolved into 20 mM stock in 100% DMSO. […] Ten microliters of trypsin and Ac-peptide substrate/Tris buffer solution were added to start the reaction, followed by a 1-h incubation at room temperature for HDACs 1–3 and 6. Ten microliters of Ac-peptide substrate/Tris buffer solution was added to start the reaction, followed by a 4-h incubation at room temperature and a further 2-h incubation with trypsin solution for HDAC8 and Sirt 2. […] This experiment was performed only once.

[12] = target: T1, hHDAC6 (Homo sapiens, UniProt Q9UBN7); experiment: Human HDAC inhibition assay, hHDAC6; format: biochemical; conditions: performed only once; read-out: Inhibitory Activity IC50, hHDAC6
T1 construct: purchased BPS Bioscience 50046
T1 sequence (Q9UBN7 whole entry): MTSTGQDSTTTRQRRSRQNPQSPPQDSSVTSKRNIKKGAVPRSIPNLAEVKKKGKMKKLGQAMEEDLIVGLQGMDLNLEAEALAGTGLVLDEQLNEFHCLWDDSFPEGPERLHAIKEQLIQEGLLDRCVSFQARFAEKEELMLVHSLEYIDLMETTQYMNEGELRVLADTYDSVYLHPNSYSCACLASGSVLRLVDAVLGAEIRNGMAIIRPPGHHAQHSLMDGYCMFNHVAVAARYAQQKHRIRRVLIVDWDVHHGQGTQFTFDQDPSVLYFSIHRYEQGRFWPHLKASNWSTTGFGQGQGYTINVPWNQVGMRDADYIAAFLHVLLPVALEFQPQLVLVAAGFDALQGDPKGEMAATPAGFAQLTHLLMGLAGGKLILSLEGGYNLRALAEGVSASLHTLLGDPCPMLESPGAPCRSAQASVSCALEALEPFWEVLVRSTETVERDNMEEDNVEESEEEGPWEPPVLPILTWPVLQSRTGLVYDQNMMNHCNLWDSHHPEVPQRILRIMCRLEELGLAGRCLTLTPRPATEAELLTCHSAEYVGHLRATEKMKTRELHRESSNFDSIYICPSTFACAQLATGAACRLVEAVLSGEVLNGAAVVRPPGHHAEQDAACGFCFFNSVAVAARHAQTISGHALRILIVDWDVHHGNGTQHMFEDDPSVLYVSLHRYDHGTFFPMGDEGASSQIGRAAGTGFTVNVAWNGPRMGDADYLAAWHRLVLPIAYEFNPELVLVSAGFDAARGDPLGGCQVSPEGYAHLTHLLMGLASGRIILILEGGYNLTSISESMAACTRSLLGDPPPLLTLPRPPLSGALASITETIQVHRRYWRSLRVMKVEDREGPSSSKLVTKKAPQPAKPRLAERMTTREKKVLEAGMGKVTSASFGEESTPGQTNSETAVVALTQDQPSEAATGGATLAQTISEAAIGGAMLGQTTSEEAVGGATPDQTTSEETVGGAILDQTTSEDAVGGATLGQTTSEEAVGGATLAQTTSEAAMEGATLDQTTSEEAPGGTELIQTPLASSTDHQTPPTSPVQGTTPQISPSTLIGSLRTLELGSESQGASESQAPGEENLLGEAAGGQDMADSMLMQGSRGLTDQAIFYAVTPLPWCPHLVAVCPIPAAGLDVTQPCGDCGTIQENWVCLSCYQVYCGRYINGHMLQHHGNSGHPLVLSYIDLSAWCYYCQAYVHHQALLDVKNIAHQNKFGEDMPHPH
Description: as §3

[13] = tested on: P. falciparum CP286; experiment: 3-day SYBR Green I GIA, strain CP286; format: cell-based; conditions: Plasmodium falciparum; CP286 resistant to pyrimethamine and chloroquine; read-out: Resistant isolates EC50, CP286
Description: as §2

[14] = target: T2, hHDAC1 (Homo sapiens, UniProt Q13547); experiment: Human HDAC inhibition assay, hHDAC1; format: biochemical; conditions: performed only once; read-out: Inhibitory Activity IC50, hHDAC1
T2 construct: purchased BPS Bioscience 50058
T2 sequence (Q13547 whole entry): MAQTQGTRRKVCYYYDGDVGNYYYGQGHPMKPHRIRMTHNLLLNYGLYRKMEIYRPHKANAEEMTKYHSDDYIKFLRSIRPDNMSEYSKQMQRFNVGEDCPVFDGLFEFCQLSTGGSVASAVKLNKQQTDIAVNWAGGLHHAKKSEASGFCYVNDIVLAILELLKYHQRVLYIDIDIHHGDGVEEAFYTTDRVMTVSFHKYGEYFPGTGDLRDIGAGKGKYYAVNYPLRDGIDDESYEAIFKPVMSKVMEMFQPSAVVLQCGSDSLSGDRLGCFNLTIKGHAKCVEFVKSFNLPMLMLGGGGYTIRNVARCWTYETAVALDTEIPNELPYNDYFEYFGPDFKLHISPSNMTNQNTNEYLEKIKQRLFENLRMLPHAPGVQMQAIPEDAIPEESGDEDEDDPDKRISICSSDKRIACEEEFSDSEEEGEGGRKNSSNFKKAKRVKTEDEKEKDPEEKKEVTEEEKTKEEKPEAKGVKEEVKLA
Description: as §3

[15] = tested on: P. falciparum Dd2; experiment: 3-day SYBR Green I GIA, multidrug-resistant strain Dd2; format: cell-based, Plasmodium falciparum; conditions: Plasmodium falciparum, 72 h; 3-day SYBR Green I GIA, multidrug-resistant strain Dd2; read-out: Antiplasmodial activity EC50, Dd2
Outline: (§4)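 Sorbitol-synchronized ring-stage parasites at 1% parasitemia and 2% hematocrit, cultured 72 h with compounds at 1% DMSO final. Growth read by SYBR Green I staining. EC50 from curve fitting.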

[16] = tested on: P. falciparum 3D7; experiment: 3-day SYBR Green I growth inhibition assay (GIA), strain 3D7; format: cell-based, Plasmodium falciparum; conditions: 3-day SYBR Green I GIA, drug-sensitive strain 3D7, read-out: Antiplasmodial activity EC50, 3D7
Outline: as §4

Question: With Cl.Cn1cc(CN2CCC3(CCN(c4ncc(C(=O)NO)cn4)C3)C2)c2cc(C#N)ccc21 (centres unmarked) [JX21108] as the molecule, how does the EC50 at 72 h [1] read?
Answer: 3820 ± 145 nM

Question: What about the “Selectivity index for HepG2 (EC50 HepG2/EC50 3D7)” value [2] of the same molecule?
Answer: ~ 1060 and 1069 and 1060

Question: And the EC50 [3]?
Answer: 2.6 ± 0.2 nM

Question: What about the EC50 [4] of the same molecule?
Answer: 2.2 ± 0.2 nM

Question: And the “RSA effect on ring-stage parasites” value [5]?
Answer: greatly inhibited parasite growth at ring stage of 6218 and 6320

Question: And the “parasite growth after 3 h of treatment” value ([6]; 100 nM, 3 h, washed, 4 days culture)?
Answer: completely blocked parasite growth

Question: What about the “parasitemia measured 4 days after 6-h treatment” value ([6]; 6-h treatment, washed, 1:40 dilution, 4 days culture) of the same molecule?
Answer: substantial reduction in parasitemia

Question: And the “asexual growth of 3D7 after 12- and 24-h treatments” value ([6]; 10-100 nM, parasitemia immediately after treatment)?
Answer: significantly inhibited the asexual growth of 3D7 parasites

Question: What about the CLint scaled at 1 µM ([7]; read-out: CL in liver microsomes) of the same molecule?
Answer: 196 mL/min/kg

Question: And the half-life at 1 µM ([7]; read-out: T1/2 in liver microsomes)?
Answer: 12.7 min

Question: And the EC50 [8]?
Answer: 330 ± 57 nM

Question: And the “Selectivity index for 293T (EC50 293T/EC50 3D7)” value [9]?
Answer: ~ 331 and 334 and 331

Question: What about the EC50 at 72 h [10] of the same molecule?
Answer: 1190 ± 233 nM

Question: And the “lower inhibitory activity on human HDACs than quisinostat” value [11]?
Answer: approximately 4 fold

Question: And the IC50 [12]?
Answer: 66 nM

Question: What about the EC50 [13] of the same molecule?
Answer: 7 ± 0.6 nM

Question: What about the IC50 [14] of the same molecule?
Answer: 1.8 nM

Question: And the EC50 [15]?
Answer: 4 nM

Question: What about the EC50 [16] of the same molecule?
Answer: 3.57 ± 0.06 nM

Question: What about the EC50 ([16]; Plasmodium falciparum, 3D7, 72 h) of the same molecule?
Answer: 3.6 nM
